Literature values in patent US6103723A, “Inhibitors of farnesyl-protein transferase” (Merck & Co., Inc., priority 1998, dated 2000).

Tested on: farnesyl-protein transferase
Settings: via HMG-CoA reductase inhibition

CC[C@H](C)C(=O)O[C@H]1CCC=C2C=C[C@H](C)[C@H](CC[C@@H]3C[C@@H](O)CC(=O)O3)[C@H]21 [compactin]
Indirect inhibition of farnesyl-protein transferase in vivo: Indirect inhibition of farnesyl-protein transferase in vivo has been demonstrated

CC[C@H](C)C(=O)O[C@H]1C[C@@H](C)C=C2C=C[C@H](C)[C@H](CC[C@@H]3C[C@@H](O)CC(=O)O3)[C@H]21 [lovastatin]
Indirect inhibition of farnesyl-protein transferase in vivo: Indirect inhibition of farnesyl-protein transferase in vivo has been demonstrated
